Measured values from article PMC9866752 (Life, 2023).

How the values were obtained:
human Frataxin (FXN) = molecular target: T1, human Frataxin (FXN) (Homo sapiens, UniProt Q16595); experiment: NMR 1H-15N SOFAST-HMQC titration, chemical shift perturbation, Hill fit; format: binding
T1 construct: D91-A210, N-terminal 6xHis-GST tag cut with thrombin; E. coli BL21; 15N-labelled
T1 sequence (Q16595 91-210): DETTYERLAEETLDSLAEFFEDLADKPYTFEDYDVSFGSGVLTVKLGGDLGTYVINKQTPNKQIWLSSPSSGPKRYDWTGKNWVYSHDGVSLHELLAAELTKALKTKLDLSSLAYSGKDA

[1] = molecular target: the molecule itself; experiment: SEC; Sd200/16/600 gel filtration column, last step of the purification; buffer with 50 mM MOPS-Tris pH 8.0, 100 mM KCl, 1% sodium cholate, 10% glycerol, 100 uM TCEP

Molecule: C=CC1=C(C)c2cc3[nH]c(cc4nc(cc5[nH]c(cc1n2)c(C)c5CCC(=O)O)C(CCC(=O)O)=C4C)c(C)c3C=C [Protoporphyrin IX]
- EC50 (human Frataxin (FXN)): 140 µM

B1: human ferrochelatase (residues R65 to L423) (enzyme, UniProt P22830 65-423, looked up)
chain: RKPKTGILMLNMGGPETLGDVHDFLLRLFLDRDLMTLPIQNKLAPFIAKRRTPKIQEQYRRIGGGSPIKIWTSKQGEGMVKLLDELSPNTAPHKYYIGFRYVHPLTEEAIEEMERDGLERAIAFTQYPQYSCSTTGSSLNAIYRYYNQVGRKPTMKWSTIDRWPTHHLLIQCFADHILKELDHFPLEKRSEVVILFSAHSLPMSVVNRGDPYPQEVSATVQKVMERLEYCNPYRLVWQSKVGPMPWLGPQTDESIKGLCERGRKNILLVPIAFTSDHIETLYELDIEYSQVLAKECGVENIRRAESLNGNPLFSKALADLVHSHIQSNELCSKQLTLSCPLCVNPVCRETKSFFTSQQL
notes: ferrochelatase, human, residues R65 to L423; Eluted as a homodimer (88 kDa); The tag is inferred; no cleavage is described; also called FCH; FECH; source: recombinant expression from pET28a in Luria-Bertani media, purified (cobalt HisTrap, gel filtration)
- stoichiometry N [1]: 2
